Data: patent US20150140123A1, “Protein expression analyses for identifying genotoxic compounds” (Merck Patent GmbH, priority 2012, published 2015)
Counter-ions that a name gives are not always drawn. Like-named read-outs stand apart in the source and are kept apart here.

Test system: HepG2 cells
Assay: High content imaging cytotoxicity parameters: selected cell count per valid field (SCC) and CMFDA cytoplasm average intensity
Procedure: HepG2 cells (Order No. HB-8065, Lot. 58483209, ATCC, Manassas, USA) were cultured in DMEM/F12 with L-Glutamine and 15 mM Hepes supplemented with 10% (v/v) FBS, 1% (v/v) penicillin (10 kU/ml)/streptomycin (10 mg/ml) solution, 0.1% (v/v) gentamicin (50 mg/ml), and 1 mM sodium pyruvate at 37° C. and 5% CO2 in culture flasks. Depending on the experiment, an appropriate number of cells were seeded onto plates after detaching of the cells using trypsin and cells were cultured at 37° C. and 5% CO2 for 24 h prior to treatment. All experiments were performed three times with cells of passages 4-20.
Cells were seeded onto black Poly-D-Lysin coated 96-well-plates (BD Biocoat, Franklin Lakes, USA) (0.02×10^6 cells/well) and left 24 h for adherence and then treated with test compounds at a maximum concentration of 1 mM which is recommended by the ICH S2(R1) guideline (EMA, 2011). For each compound, nine concentrations were tested with 2-fold serial dilutions. DMSO 1% (v/v) served as vehicle control for the experiments. The treatment procedure was different for direct-genotoxic and pro-genotoxic compounds. The treatment for direct genotoxic compounds was ongoing and was repeated daily over 48 h. Pro-genotoxic compounds were incubated for 6 h together with metabolic activation system (to limit the cytotoxic effect of the S9-mixture). After this period, cells were washed with cell media followed by 18-repeated daily over 48 h. The metabolic activation system used consisted of the following components and concentrations: 8 mM MgCl2, 32.8 mM KCl, 12 mM NADPH, 124 mM phosphate buffer and 2500 pmol/ml cytochrome P450 (CYP) content in the pre-mixture corresponding to 2.4 mM MgCl2, 9.8 mM KCl, 3.6 mM NADPH, 37.2 mM phosphate buffer, and 750 pmol/ml CYP as final concentrations after dilution 1:3.33 with cell culture media.
After treatment, cells were rinsed with PBS (Gibco Invitrogen, Karlsruhe, Germany), and then stained with 10 μM CellTracker Green 5-Chloromethylfluorescein Diacetate (CMFDA) (Invitrogen, Karlsruhe, Germany) in cell culture media for 30 min. CMFDA is per se non-fluorescent and is hydrolyzed by esterase in viable cells to a fluorescent-dye. The reaction with thiol groups leads to a cell-impermeable fluorescent-dye-adduct. The esterase activity can be used as an indicator for viability of cells (Papadopoulos et al., 1994, J Immunol Methods 177, 101-11). Afterwards, cells were washed with PBS and fixed with 3.7% Formaldehyde (Sigma-Aldrich, Taufkirchen, Germany) in PBS for 20 min. After that, cells were washed with PBS and blocked and permeabilized with 2% donkey serum (Millipore, Schwalbach, Germany) and 0.25% Triton X-100 (Sigma-Aldrich, Taufkirchen, Germany) in PBS for 30 min. Primary antibodies were diluted in Blocking/Permeabilization solution to final concentrations of 4 μg/ml anti-p-Chk1 (Ser345) goat polyclonal antibody IgG (santa cruz, Santa Cruz, USA), 4 μg/ml anti-p-ATM (Ser1981) mouse monoclonal antibody IgG1K (Millipore, Schwalbach, Germany) and added to the cells. After incubation for 16-18 h, cells were washed with 0.05% Tween 20 (Calbiochem, Darmstadt, Germany) in PBS, and the secondary antibody/16 μM Hoechst staining solution Blocking/Permeabilization solution was added. Secondary antibodies were diluted 1:400 (Alexa Fluor 555 donkey anti-goat, Alexa Fluor 647 donkey anti-mouse, Invitrogen, Karlsruhe, Germany). After an incubation of 1 h, followed by two additional washing steps with 0.05% Tween 20, cells were washed with PBS and finally PBS was added and cells were measured.
Image acquisition was performed on the ArrayScan VTI HCS Reader (Cellomics, Pittsburgh, USA) using a 20× objective. To detect enough cells, 50 images starting at the middle of each well were gathered.
• Channel 1: selected cell count per valid field • Channel 2: CMFDA cytoplasm average intensity • Channel 3: p-Chk1 (Ser345) nucleus average intensity • Channel 4: p-ATM (Ser1981) nucleus average intensity

[1] = HepG2 cells, 48 h, CMFDA cytoplasm average intensity, with rat liver S9 (+S9)
[2] = HepG2 cells, 48 h, CMFDA cytoplasm average intensity, without metabolic activation (−S9)
[3] = HepG2 cells, 48 h, selected cell count per valid field, with rat liver S9 (+S9)
[4] = HepG2 cells, 48 h, selected cell count per valid field, without metabolic activation (−S9)

SMILES	CMFDA −S9 highest conc. <50% cytotox. over control (human, 48 h)	SCC −S9 highest conc. <50% cytotox. over control (human, 48 h)	CMFDA +S9 highest conc. <50% cytotox. over control [1]	CMFDA −S9 highest conc. <50% cytotox. over control [2]	SCC +S9 highest conc. <50% cytotox. over control [3]	SCC −S9 highest conc. <50% cytotox. over control [4]	other results
OCCNCCO [Diethanolamine]	1000 µM	1000 µM					CMFDA +S9 highest conc. <50% cytotox. over control (human, 48 h): 1000 µM; SCC +S9 highest conc. <50% cytotox. over control (human, 48 h): 1000 µM
c1ccncc1 [Pyridine]							CMFDA +S9 highest conc. <50% cytotox. over control (human): 1000 µM; CMFDA −S9 highest conc. <50% cytotox. over control (human): 1000 µM; SCC +S9 highest conc. <50% cytotox. over control (human): 1000 µM; SCC −S9 highest conc. <50% cytotox. over control (human): 1000 µM
O=C1NS(=O)(=O)c2ccccc21.[Na] [Sodium saccharin]							CMFDA +S9 highest conc. <50% cytotox. over control (human): 1000 µM; CMFDA −S9 highest conc. <50% cytotox. over control (human): 1000 µM; SCC +S9 highest conc. <50% cytotox. over control (human): 1000 µM; SCC −S9 highest conc. <50% cytotox. over control (human): 1000 µM
COC(N)=O [Methyl carbamate]			1000 µM	1000 µM	1000 µM	1000 µM	
C=CC(=O)OCC [Ethyl acrylate]							CMFDA +S9 highest conc. <50% cytotox. over control (human): 1000 µM; CMFDA −S9 highest conc. <50% cytotox. over control (human): 1000 µM; SCC +S9 highest conc. <50% cytotox. over control (human): 1000 µM; SCC −S9 highest conc. <50% cytotox. over control (human): 1000 µM
Cc1c2ccccc2c(C)c2c1ccc1ccccc12 [7,12-Dimethylbenz[a]anthracene]							CMFDA +S9 highest conc. <50% cytotox. over control (human): 1000 µM; CMFDA −S9 highest conc. <50% cytotox. over control (human): 250 µM; SCC +S9 highest conc. <50% cytotox. over control (human): 500 µM; SCC −S9 highest conc. <50% cytotox. over control (human): 125 µM
ClC(Cl)(Cl)C(Cl)(Cl)Cl [Hexachloroethane]			1000 µM	1000 µM	1000 µM	1000 µM	
Nc1ccccc1C(=O)O [o-Anthranilic acid]			1000 µM	1000 µM	1000 µM	1000 µM	
CCc1cc(C(N)=S)ccn1 [Ethionamide]	1000 µM	1000 µM					CMFDA +S9 highest conc. <50% cytotox. over control (human, 48 h): 1000 µM; SCC +S9 highest conc. <50% cytotox. over control (human, 48 h): 1000 µM
Nc1ccc(Cl)cc1 [p-chloroaniline]							CMFDA +S9 highest conc. <50% cytotox. over control (human): 1000 µM; CMFDA −S9 highest conc. <50% cytotox. over control (human): 1000 µM; SCC +S9 highest conc. <50% cytotox. over control (human): 1000 µM; SCC −S9 highest conc. <50% cytotox. over control (human): 1000 µM
CC(C)C=O [Isobutyraldehyde]	1000 µM	1000 µM					CMFDA +S9 highest conc. <50% cytotox. over control (human, 48 h): 1000 µM; SCC +S9 highest conc. <50% cytotox. over control (human, 48 h): 1000 µM
CC(C)(C)c1cc(O)ccc1O [Tertiary-butylhydroquinone]	125 µM	125 µM					CMFDA +S9 highest conc. <50% cytotox. over control (human, 48 h): 1000 µM; SCC +S9 highest conc. <50% cytotox. over control (human, 48 h): 1000 µM
Nc1nc(N)nc(N)n1 [Melamine]			1000 µM	1000 µM	1000 µM	1000 µM	
Cn1c(N)nc2c3cccnc3ccc21 [IQ, 2-Amino-3methylimidazo[4,5-f]quinoline]			125 µM	1000 µM	125 µM	1000 µM	
CCCCC(CC)COP(=O)(OCC(CC)CCCC)OCC(CC)CCCC (stereo not drawn) [Tris(2-ethylhexyl)phosphate]			1000 µM	7.813 µM	1000 µM	500 µM	
Cn1c(N)nc2ncc(-c3ccccc3)cc21 [PhIP•HCl, 2-Amino-1-methyl-6-phenylimidazo[4,5-f]pyridine]			1000 µM	500 µM	1000 µM	500 µM	
OC[C@@H](O)[C@@H](O)[C@H](O)[C@H](O)CO [D-mannitol]	1000 µM	1000 µM					CMFDA +S9 highest conc. <50% cytotox. over control (human, 48 h): 1000 µM; SCC +S9 highest conc. <50% cytotox. over control (human, 48 h): 1000 µM
C[N+](C)(C)CCCl.[Cl-] [(2-chloroethyl)trimethyl-ammonium chloride]							CMFDA +S9 highest conc. <50% cytotox. over control (human): 1000 µM; CMFDA −S9 highest conc. <50% cytotox. over control (human): 1000 µM; SCC +S9 highest conc. <50% cytotox. over control (human): 1000 µM; SCC −S9 highest conc. <50% cytotox. over control (human): 1000 µM
Oc1cccc(O)c1 [1,3-Dihydroxybenzene (resorcinol), 1,3-Dihydroxybenzene]	1000 µM	1000 µM					CMFDA +S9 highest conc. <50% cytotox. over control (human, 48 h): 500 µM; SCC +S9 highest conc. <50% cytotox. over control (human, 48 h): 1000 µM
CC(=O)Nc1ccc2c(c1)Cc1ccccc1-2 [2-Acetylaminofluorene]			1000 µM	1000 µM	1000 µM	1000 µM	
CC[C@H]1OC(=O)[C@H](C)[C@@H](O[C@H]2C[C@@](C)(OC)[C@@H](O)[C@H](C)O2)[C@H](C)[C@@H](O[C@@H]2O[C@H](C)C[C@H](N(C)C)[C@H]2O)[C@](C)(O)C[C@@H](C)C(=O)[C@H](C)[C@@H](O)[C@]1(C)O [Erythromycin stearate]	62.5 µM	31.25 µM					
NC(N)=O [Urea]			1000 µM	1000 µM	1000 µM	1000 µM	
CCCCCl [n-butyl chloride]							CMFDA +S9 highest conc. <50% cytotox. over control: 1000 µM; CMFDA −S9 highest conc. <50% cytotox. over control: 1000 µM; SCC +S9 highest conc. <50% cytotox. over control: 1000 µM; SCC −S9 highest conc. <50% cytotox. over control: 1000 µM
